Results taken from article PMC3340335, “Differential Scanning Fluorometry Signatures as Indicators of Enzyme Inhibitor Mode of Action: Case Study of Glutathione S-Transferase” (PLoS ONE, 2012).
Read-outs that look alike come from different tables or passages of the source. Blank lines part the entries; values can stand above or below the compound they belong to.

Columns and labels:
SjGST [1] = biological target: T1, SjGST (Schistosoma japonicum, UniProt P08515); test: SjGST luciferase-coupled luminescence enzymatic assay (PBI 1155 substrate, 100 µM GSH); assay type: biochemical; conditions: for inhibition at 58 µM: read-out: % Inhibition at 58 μM against SjGST
T1 construct: purchased GenScript (Piscataway, NJ)
Procedure: Compound inhibitory activities were evaluated using a previously reported GST enzymatic assay. Three µl of reagents (5 nM final concentration of SjGST (or buffer serving as a no-enzyme control) plus 100 µM final concentration of GSH) were dispensed into 1536-well Greiner white solid-bottom assay plates. Compounds (23 nL) were transferred via Kalypsys pintool equipped with 1,536-pin array. The plates were incubated at room temperature for 15 min before the addition of 20 µM substrate PBI 1155 to initiate the reaction. The plates were centrifuged at 1000 rpm for 15 s and incubated at room temperature for 40 min before the addition 4 µl luciferin detection reagent followed by another 15-s centrifugation at 1000 rpm and 15-min incubation. The plates were then read on ViewLux high-throughput CCD imager (PerkinElmer, Waltham, MA) with a clear emission filter and under standard luminescence settings. Percent inhibition was calculated based on the enzyme-containing and no-enzyme controls using Excel and GraphPad Prism 4.

SjGST [2] = biological target: T1, SjGST; test: biochemical; assay type: binding; conditions: for ΔTm at 200 µM / Difference in thermal shift between GSH-present (2 mM) and GSH-absent curves at top compound concentration: 200 µM compound; for ΔTm at 200 µM / Difference in thermal shift between GSH-present (2 mM) and GSH-absent curves at top compound concentration / Difference in thermal shift between GSH-present (2 mM) and GSH-absent curves across compound concentrations: 2 mM GSH versus no GSH; for ΔTm at 200 µM: read-out: Difference in thermal shift between GSH-present (2 mM) and GSH-absent curves at top compound concentration; for Thermal shift (ΔTm versus vehicle control) of SjGST: absence of GSH, top compound concentration, 200 µM, 1 µM SjGST; for Difference in thermal shift between GSH-present (2 mM) and GSH-absent curves across compound concentrations: across all concentrations up to 200 µM
Procedure: Compounds were diluted (1∶2, 7-points) in DMSO row-wise down to 10 µM in a 96-well polypropylene round bottom mother plate, with DMSO alone in the first column of each plate. […] The PCR plates were centrifuged at 1000 rpm for 10 s to ensure good mixing, and sealed with Optical-Quality Sealing Tape (Bio-Rad). […] The mid temperature of the protein thermal melt profiles, Tm, was determined using EXCEL-based custom calculation software available at (ftp://ftp.sgc.ox.ac.uk/pub/biophysics), and fitting of the data to the Boltzmann equation was performed using GraphPad Prism 4. The differences in Tm between vehicle control and compound-containing samples were calculated as thermal shift.

hGST A1-1 = biological target: T2, hGST A1-1 (Homo sapiens, UniProt P08263); test: Thermal shift assay (DSF) with hGST A1-1; assay type: binding; conditions: concentration-response, Fig. 7A-C
T2 construct: purchased Oxford Biomedical Research (Oxford, MI)
T2 sequence (P08263 1-222): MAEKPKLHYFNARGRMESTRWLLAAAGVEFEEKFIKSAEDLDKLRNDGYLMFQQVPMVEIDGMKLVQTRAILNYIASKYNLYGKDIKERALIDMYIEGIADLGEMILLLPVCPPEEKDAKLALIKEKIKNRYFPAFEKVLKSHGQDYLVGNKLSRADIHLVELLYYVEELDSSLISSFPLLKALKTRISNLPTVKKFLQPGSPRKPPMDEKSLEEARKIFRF
Procedure: (§1) Compounds were diluted (1∶2, 7-points) in DMSO row-wise down to 10 µM in a 96-well polypropylene round bottom mother plate, with DMSO alone in the first column of each plate. […] The PCR plates were centrifuged at 1000 rpm for 10 s to ensure good mixing, and sealed with Optical-Quality Sealing Tape (Bio-Rad). The plates were subsequently heated approximately 2 min after sample mixing, on an iQ5 thermal cycler at intervals of 1°C from 20 to 95°C, with a ramping rate of 6°C min^−1. The set-up of the filter configurations was customized to accommodate the optimal excitation and emission wavelengths for SYPRO Orange (Ex: 490/Em: 575 nm). The mid temperature of the protein thermal melt profiles, Tm, was determined using EXCEL-based custom calculation software available at (ftp://ftp.sgc.ox.ac.uk/pub/biophysics), and fitting of the data to the Boltzmann equation was performed using GraphPad Prism 4. The differences in Tm between vehicle control and compound-containing samples were calculated as thermal shift.
(§2) The study was subsequently extended to human GST isozymes by testing one representative compound from each category against hGST A1 and M1 (hGST P1 was not pursued due to the protein's lack of clear melt transition, data not shown).

hGST M1-1 = biological target: T3, hGST M1-1 (Homo sapiens, UniProt P09488); test: Thermal shift assay (DSF) with hGST M1-1; assay type: binding; conditions: concentration-response, Fig. 7D-F
T3 construct: purchased Oxford Biomedical Research (Oxford, MI)
T3 sequence (P09488 1-218): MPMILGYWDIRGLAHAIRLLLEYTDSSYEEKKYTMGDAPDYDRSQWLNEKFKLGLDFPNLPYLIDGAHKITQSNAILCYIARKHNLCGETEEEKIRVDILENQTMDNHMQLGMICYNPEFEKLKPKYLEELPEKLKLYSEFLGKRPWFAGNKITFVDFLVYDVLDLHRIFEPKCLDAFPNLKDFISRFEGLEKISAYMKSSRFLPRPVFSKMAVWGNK
Procedure: as §1, §2

[3] = 5 nM SjGST, 100 µM GSH, 20 µM PBI 1155, read-out: IC50 against SjGST

T1 sequence (P08515 whole entry): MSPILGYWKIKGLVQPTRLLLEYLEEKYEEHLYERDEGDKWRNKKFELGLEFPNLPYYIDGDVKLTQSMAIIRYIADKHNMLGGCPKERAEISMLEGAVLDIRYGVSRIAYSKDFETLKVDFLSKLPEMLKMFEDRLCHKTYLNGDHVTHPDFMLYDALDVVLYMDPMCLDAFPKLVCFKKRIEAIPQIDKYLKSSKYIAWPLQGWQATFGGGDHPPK

SMILES: C=C(CC)C(=O)c1ccc(OCC(=O)O)c(Cl)c1Cl [Ethacrynic acid, ethacrynic acid]
IC50 (SjGST [1]; [3]): 0.14 µM
ΔTm at 200 µM (SjGST [2]): 11.5 °C
Thermal shift (ΔTm versus vehicle control) of SjGST (SjGST [2]): 1.8 °C
Glutathione-dependency trend of thermal shift curves (with versus without 2 mM GSH) (hGST A1-1): diverging trend
Glutathione-dependency trend of thermal shift curves (with versus without 2 mM GSH) (hGST M1-1): diverging trend

SMILES: CCCCSC[C@H](NC(=O)CC[C@H](N)C(=O)O)C(=O)NCC(=O)O [S-butyl GSH, S-butyl glutathione]
inhibition at 58 µM (SjGST [1]): 35%
Difference in thermal shift between GSH-present (2 mM) and GSH-absent curves at top compound concentration (SjGST [2]): 1.8 °C

ΔTm at 2000 µM (SjGST [2]; 2 mM GSH, at low compound concentrations, read-out: Enhancement in thermal shift baseline due to GSH): ~4 °C
SMILES: N[C@@H](CCC(=O)N[C@@H](CS)C(=O)NCC(=O)O)C(=O)O [GSH, γ-Glu-Cys-Gly]

SMILES: O=c1c(O)c(-c2ccc(O)c(O)c2)oc2cc(O)cc(O)c12 [Quercetin, quercetin]
IC50 (SjGST [1]; [3]): 5 µM
Thermal shift (ΔTm versus vehicle control) of SjGST (SjGST [2]): over 3 °C
Difference in thermal shift between GSH-present (2 mM) and GSH-absent curves across compound concentrations (SjGST [2]): approximately 4 °C
Glutathione-dependency trend of thermal shift curves (with versus without 2 mM GSH) (hGST A1-1): parallel trend
Glutathione-dependency trend of thermal shift curves (with versus without 2 mM GSH) (hGST M1-1): parallel trend

SMILES: O=c1c(O)c(-c2cc(O)c(O)c(O)c2)oc2cc(O)cc(O)c12 [Myricetin, myricetin]
IC50 (SjGST [1]): 6.6 µM
Thermal shift (ΔTm versus vehicle control) of SjGST (SjGST [2]): over 3 °C
Difference in thermal shift between GSH-present (2 mM) and GSH-absent curves across compound concentrations (SjGST [2]): approximately 4 °C

SMILES: CCCCCCSC[C@H](NC(=O)CC[C@H](N)C(=O)O)C(=O)NCC(=O)O [S-hexyl GSH, S-hexyl glutathione]
inhibition at 58 µM (SjGST [1]): 58%
Difference in thermal shift between GSH-present (2 mM) and GSH-absent curves at top compound concentration (SjGST [2]): 1.8 °C

IC50 (SjGST [1]; [3]): 2.3 µM
ΔTm at 200 µM (SjGST [2]): 4 °C
Thermal shift (ΔTm versus vehicle control) of SjGST (SjGST [2]): 5.9 °C
SMILES: NC(CCC(=O)NC(CSc1ccc([N+](=O)[O-])c2nonc12)C(=O)NCC(=O)O)C(=O)O (stereo not shown) [NBD-GS]

SMILES: CCCCCCCCSC[C@H](NC(=O)CC[C@H](N)C(=O)O)C(=O)NCC(=O)O [S-octyl GSH, S-octyl glutathione]
inhibition at 58 µM (SjGST [1]): 83%
Difference in thermal shift between GSH-present (2 mM) and GSH-absent curves at top compound concentration (SjGST [2]): 0.45 °C
Glutathione-dependency trend of thermal shift curves (with versus without 2 mM GSH) (hGST A1-1): converging trend
Glutathione-dependency trend of thermal shift curves (with versus without 2 mM GSH) (hGST M1-1): converging trend

IC50 (SjGST [1]; [3]): 0.66 µM
ΔTm at 200 µM (SjGST [2]): 10.5 °C
SMILES: O=[N+]([O-])c1ccc(SCCCCCCCCO)c2nonc12 [NBD-8-OH]
Thermal shift (ΔTm versus vehicle control) of SjGST (SjGST [2]): failed to display any significant thermal stabilization effect

SMILES: CSC[C@H](NC(=O)CC[C@H](N)C(=O)O)C(=O)NCC(=O)O [S-methyl GSH, S-methyl glutathione]
Inhibition of SjGST at concentrations up to 200 µM (SjGST [1]; tested up to 200 µM): did not show detectable inhibition
Thermal shift (ΔTm versus vehicle control) of SjGST (SjGST [2]): < 2 °C

SMILES: NC(CCC(=O)NC(CSc1ccc(C(=O)OCCOCCOCCOCCOC(=O)c2ccc(SCC(NC(=O)CCC(N)C(=O)O)C(=O)NCC(=O)O)c([N+](=O)[O-])c2)cc1[N+](=O)[O-])C(=O)NCC(=O)O)C(=O)O (stereo not shown) [Bis-(NB-GS)]
IC50 (SjGST [1]; [3]): 0.67 µM
Fold greater inhibitory potency of Bis-(NB-GS) versus NBD-GS (SjGST [1]; ratio of IC50 values, 0.67 µM versus 2.3 µM): over 3 fold
ΔTm at 200 µM (SjGST [2]): 1.2 °C
Thermal shift (ΔTm versus vehicle control) of SjGST (SjGST [2]): 11.1 °C
